Experimental data from US6355799B1, “Substituted benzene compounds, process for their preparation, and herbicidal and defoliant compositions containing them” (ISK Americas Incorporated, priority 1997, dated 2002).

Legend:
Assay type in all cases: in vivo
[1] = tested on: redroot pigweed (Amaranthus retroflexus, AMARE); experiment: Pre-emerge test, greenhouse herbicide activity screening; conditions: phytotoxicity rating 0-100, 14 days after application
Procedure, shortened: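 Plants grown in 10 cm pots of sandy loam mix received acetone-dissolved compounds through a moving flat-fan nozzle. Doses ranged from 15 to 1000 g ai/ha. Pre-emerge pots were seeded one day earlier, post-emerge pots 8–21 days earlier. Fourteen days on, each pot was graded 0–100 for damage.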

[2] = tested on: barnyardgrass (Echinochloa crus-galli, ECHCG); experiment: as above; conditions: phytotoxicity rating 0-100, 14 days after application
Procedure, shortened: (§1)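 Sandy loam pots; pre-emerge: sown 1 d pre-spray, surface-watered after, then bottom-watered. Post-emerge: sown 8–21 d before, 2–3 leaf stage, + 0.25% v/v NIS, bottom-watered. Acetone, 187 l/ha track spray, 15–1000 g ai/ha. 0–100 injury score, day 14.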

[3] = tested on: green foxtail (Setaria viridis, SETVI); experiment: as above; conditions: phytotoxicity rating 0-100, 14 days after application
Procedure, shortened: as §1

[4] = tested on: ivyleaf morningglory (Ipomoea hederacea, IPOHE); experiment: as above; conditions: phytotoxicity rating 0-100, 14 days after application
Procedure, shortened: as §1

[5] = tested on: johnsongrass (Sorghum halepense, SORHA); experiment: as above; conditions: phytotoxicity rating 0-100, 14 days after application
Procedure, shortened: as §1

[6] = tested on: lambsquarters (Chenopodium album, CHEAL); experiment: as above; conditions: phytotoxicity rating 0-100, 14 days after application
Procedure, shortened: as §1

[7] = tested on: large crabgrass (Digitaria sanguinalis, DIGSA); experiment: as above; conditions: phytotoxicity rating 0-100, 14 days after application
Procedure, shortened: as §1

[8] = tested on: sicklepod (Cassia obtusifolia, CASOB); experiment: as above; conditions: phytotoxicity rating 0-100, 14 days after application
Procedure, shortened: as §1

[9] = tested on: velvetleaf (Abutilon theophrasti, ABUTH); experiment: as above; conditions: phytotoxicity rating 0-100, 14 days after application
Procedure, shortened: as §1

[10] = tested on: field corn (Zea mays L., var. Dekalb 535, CORN); experiment: Pre-emerge test, crop safety; conditions: crop damage rating 0-100, 14 days after application
Procedure, shortened: (§2)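 Rating: 0–100 visual injury, 14 DAA. Application: acetone, 187 l/ha, 15–1000 g ai/ha, flat-fan track sprayer with nozzle 40–45 cm above soil or canopy. Post-emerge runs used 0.25% v/v surfactant on 2–3 leaf plants.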

[11] = tested on: upland rice (Oryza sp., var. Tebonnet, RICE); experiment: Pre-emerge test, crop safety; conditions: crop damage rating 0-100, 14 days after application
Procedure, shortened: as §2

[12] = tested on: barnyardgrass (Echinochloa crus-galli, ECHCG); experiment: Post-emerge test, greenhouse herbicide activity screening; conditions: post-emerge, 14 days after application, rating scale 0-100
Procedure, shortened: (§3)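 Applied at 15–1000 g ai/ha from acetone in 187 l/ha spray volume. Post-emergence applications included 0.25% v/v non-ionic surfactant and reached plants sown 8–21 days before. Pre-emergence applications were incorporated by surface watering. Efficacy or crop damage was rated on a 0–100 scale after 14 days.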

[13] = tested on: green foxtail (Setaria viridis, SETVI); experiment: as above; conditions: post-emerge, 14 days after application, rating scale 0-100
Procedure, shortened: as §3

[14] = tested on: ivyleaf morningglory (Ipomoea hederacea, IPOHE); experiment: as above; conditions: post-emerge, 14 days after application, rating scale 0-100
Procedure, shortened: as §3

[15] = tested on: johnsongrass (Sorghum halepense, SORHA); experiment: as above; conditions: post-emerge, 14 days after application, rating scale 0-100
Procedure, shortened: as §3

[16] = tested on: lambsquarters (Chenopodium album, CHEAL); experiment: as above; conditions: post-emerge, 14 days after application, rating scale 0-100
Procedure, shortened: as §3

[17] = tested on: large crabgrass (Digitaria sanguinalis, DIGSA); experiment: as above; conditions: post-emerge, 14 days after application, rating scale 0-100
Procedure, shortened: as §3

[18] = tested on: redroot pigweed (Amaranthus retroflexus, AMARE); experiment: as above; conditions: post-emerge, 14 days after application
Procedure, shortened: as §3

[19] = tested on: sicklepod (Cassia obtusifolia, CASOB); experiment: as above; conditions: post-emerge, 14 days after application, rating scale 0-100
Procedure, shortened: as §3

[20] = tested on: velvetleaf (Abutilon theophrasti, ABUTH); experiment: as above; conditions: post-emerge, 14 days after application, rating scale 0-100
Procedure, shortened: as §3

[21] = tested on: field corn (Zea mays L., var. Dekalb 535, CORN); experiment: Post-emerge test, crop safety; conditions: post-emerge, 14 days after application, rating scale 0-100
Procedure, shortened: as §1

[22] = tested on: upland rice (Oryza sp., var. Tebonnet, RICE); experiment: Post-emerge test, crop safety; conditions: post-emerge, 14 days after application, rating scale 0-100
Procedure, shortened: as §1

SMILES: COc1c(Cl)cc(F)c(-n2c(=O)cc(C(F)(F)F)n(C)c2=O)c1NC(=O)OCc1c(F)cccc1F [4-29]
- Pre-emerge Herbicidal Activity AMARE ([1]; 63 g ai/ha): 100
- Pre-emerge Herbicidal Activity AMARE ([1]; 250 g ai/ha): 100
- Pre-emerge Herbicidal Activity ECHCG ([2]; 63 g ai/ha): 70
- Pre-emerge Herbicidal Activity ECHCG ([2]; 250 g ai/ha): 90
- Pre-emerge Herbicidal Activity SETVI ([3]; 63 g ai/ha): 100
- Pre-emerge Herbicidal Activity SETVI ([3]; 250 g ai/ha): 100
- Pre-emerge Herbicidal Activity IPOHE ([4]; 63 g ai/ha): 70
- Pre-emerge Herbicidal Activity IPOHE ([4]; 250 g ai/ha): 90
- Pre-emerge Herbicidal Activity SORHA ([5]; 63 g ai/ha): 70
- Pre-emerge Herbicidal Activity SORHA ([5]; 250 g ai/ha): 90
- Pre-emerge Herbicidal Activity CHEAL ([6]; 63 g ai/ha): 100
- Pre-emerge Herbicidal Activity CHEAL ([6]; 250 g ai/ha): 100
- Pre-emerge Herbicidal Activity DIGSA ([7]; 63 g ai/ha): 100
- Pre-emerge Herbicidal Activity DIGSA ([7]; 250 g ai/ha): 100
- Pre-emerge Herbicidal Activity CASOB ([8]; 63 g ai/ha): 40
- Pre-emerge Herbicidal Activity CASOB ([8]; 250 g ai/ha): 80
- Pre-emerge Herbicidal Activity ABUTH ([9]; 63 g ai/ha): 100
- Pre-emerge Herbicidal Activity ABUTH ([9]; 250 g ai/ha): 100
- Pre-emerge Herbicidal Activity CORN ([10]; 63 g ai/ha): 80
- Pre-emerge Herbicidal Activity CORN ([10]; 250 g ai/ha): 95
- Pre-emerge Herbicidal Activity RICE ([11]; 63 g ai/ha): 50
- Pre-emerge Herbicidal Activity RICE ([11]; 250 g ai/ha): 85
- phytotoxicity rating ECHCG ([12]; 63 g ai/ha): 70
- phytotoxicity rating ECHCG ([12]; 250 g ai/ha): 90
- phytotoxicity rating SETVI ([13]; 63 g ai/ha): 80
- phytotoxicity rating SETVI ([13]; 250 g ai/ha): 99
- phytotoxicity rating IPOHE ([14]; 63 g ai/ha): 100
- phytotoxicity rating IPOHE ([14]; 250 g ai/ha): 100
- phytotoxicity rating SORHA ([15]; 63 g ai/ha): 60
- phytotoxicity rating SORHA ([15]; 250 g ai/ha): 100
- phytotoxicity rating CHEAL ([16]; 63 g ai/ha): 90
- phytotoxicity rating CHEAL ([16]; 250 g ai/ha): 100
- phytotoxicity rating DIGSA ([17]; 63 g ai/ha): 50
- phytotoxicity rating DIGSA ([17]; 250 g ai/ha): 90
- phytotoxicity rating AMARE ([18]; 63 g ai/ha, rating scale 0-100 (0 no damage, 100 complete death)): 100
- phytotoxicity rating AMARE ([18]; 250 g ai/ha, rating scale 0-100): 100
- phytotoxicity rating CASOB ([19]; 63 g ai/ha): 90
- phytotoxicity rating CASOB ([19]; 250 g ai/ha): 100
- phytotoxicity rating ABUTH ([20]; 63 g ai/ha): 100
- phytotoxicity rating ABUTH ([20]; 250 g ai/ha): 100
- phytotoxicity rating CORN (crop damage) ([21]; 63 g ai/ha): 80
- phytotoxicity rating CORN (crop damage) ([21]; 250 g ai/ha): 100
- phytotoxicity rating RICE (crop damage) ([22]; 63 g ai/ha): 60
- phytotoxicity rating RICE (crop damage) ([22]; 250 g ai/ha): 85
